Read-outs that look alike come from different tables or passages of the source.
Tests used:
[1] = molecular target: T1, BACE1 activity in SH-SY5YAPP695Wt cells (Homo sapiens, UniProt P56817); experiment: SH-SY5YAPP695Wt Whole Cell Assay (Abeta ELISA); format: cell-based; settings: 24 hours incubation, conditioned media, n=4
T1 construct: endogenous in cells; host or cells: SH-SY5Y (ATCC CRL2266) stably expressing human APP695Wt
Procedure: (§1) To assess selectivity of BACE1 over BACE2, the test compound is evaluated in FRET assays using specific substrates for BACE1 and BACE2 as described below. For in vitro enzymatic and cellular assays, the test compound is prepared in DMSO to make up a 10 mM stock solution. The stock solution is serially diluted in DMSO to obtain a ten-point dilution curve with final compound concentrations ranging from 10 μM to 0.05 nM in a 96-well round-bottom plate before conducting the in vitro enzymatic and whole cell assays.
The routine whole cell assay for the measurement of inhibition of BACE1 activity utilizes the human neuroblastoma cell line SH-SY5Y (ATCC Accession No. CRL2266) stably expressing a human APP695Wt cDNA. Cells are routinely used up to passage number 6 and then discarded.
SH-SY5YAPP695Wt cells are plated in 96 well tissue culture plates at 5.0×10^4 cells/well in 200 μL culture media (50% MEM/EBSS and Ham's F12, 1× each sodium pyruvate, non-essential amino acids and NaHCO3 containing 10% FBS). The following day, media is removed from the cells, fresh media added then incubated at 37° C. for 24 hours in the presence/absence of test compound at the desired concentration range.
At the end of the incubation, conditioned media are analyzed for evidence of beta-secretase activity by analysis of Abeta peptides 1-40 and 1-42 by specific sandwich ELISAs. […]

human BACE2 (1-460):Fc = molecular target: T2, human BACE2 (1-460):Fc (Homo sapiens, UniProt Q9Y5Z0); experiment: BACE2 TMEM27 FRET Assay; format: biochemical
T2 construct: made in house; host or cells: HEK293 cells, transient transfection; purified from conditioned media by Protein A
T2 sequence (Q9Y5Z0 21-460): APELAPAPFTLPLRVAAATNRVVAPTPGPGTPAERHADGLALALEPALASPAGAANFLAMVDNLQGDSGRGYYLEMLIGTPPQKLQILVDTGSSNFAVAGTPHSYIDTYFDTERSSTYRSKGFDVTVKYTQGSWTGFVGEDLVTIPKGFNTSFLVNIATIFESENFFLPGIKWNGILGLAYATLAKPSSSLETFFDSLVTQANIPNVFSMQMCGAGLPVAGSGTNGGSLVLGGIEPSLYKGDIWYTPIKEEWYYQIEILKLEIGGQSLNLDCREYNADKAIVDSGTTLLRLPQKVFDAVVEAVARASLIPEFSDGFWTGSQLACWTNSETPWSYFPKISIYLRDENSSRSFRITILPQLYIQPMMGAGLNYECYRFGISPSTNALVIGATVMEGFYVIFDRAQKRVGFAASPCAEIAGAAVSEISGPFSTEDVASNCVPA
Procedure: as §1
(§2) Human BACE1 (accession number: AF190725) and human BACE2 (accession number: AF 204944) are cloned from total brain cDNA by RT-PCR. The nucleotide sequences corresponding to amino acid sequences #1 to 460 are inserted into the cDNA encoding human IgG1 (Fc) polypeptide (Vassar et al., Science, 286, 735-742 (1999)). […]
(§3) Conditioned media of HEK293 cells transiently transfected with huBACE1:Fc or huBACE2:Fc cDNA are collected. […] The purity of the final product is assessed by electrophoresis in 4-20% Tris-Glycine SDS-PAGE. […]
Serial dilutions of test compound are prepared as described above. […] The RFU of the mixture at time 0 is recorded at excitation wavelength 430 nm and emission wavelength 535 nm. […] The RFU at the end of incubation is recorded with the same excitation and emission settings used at time 0. […]

beta-secretase = experiment: In vivo inhibition of beta-secretase, cannulated beagle dog model (Abeta 1-x ELISA); settings: male beagle dogs, 1.0 mg/kg p.o.
Procedure: (§4) Several animal models, including mouse, guinea pig, dog, and monkey, may be used to screen for inhibition of beta-secretase activity in vivo following compound treatment. Herein, we conduct central pharmacology studies in a cannulated beagle dog model. In this model, a cohort of male beagle dogs are implanted with a cannula in the lumbar spine region and threaded up towards the cervical spine. This model allows multiple CSF collections throughout a single 48-72 hour study period through a subcutaneous lumbar port attached to the spinal catheter. As long as the cannula remains patent, additional CSF pharmacology studies can be conducted within the same cohort of dogs. Blood samples are processed to obtain plasma, and then plasma and CSF samples are aliquoted to allow determination of test compound and Abeta CSF concentrations.
In this study, six male beagle dogs are dosed p.o. with 1.0 mg/kg Example 1 in a 0.5 M, phosphate buffer (pH=2.0) formulation and blood (0.5, 1, 2, 3, 6, 9, 12, 24, and 48 hours) and CSF (3, 6, 9, 24, and 48 hours) are collected. Plasma and CSF compound concentrations are determined by LC/MS/MS methods. Plasma and CSF are also analyzed for Abeta 1-x. “Abeta 1-x” as used herein refers to the sum of Abeta species that begin with residue 1 and end with a C-terminus greater than residue 28. This detects the majority of Abeta species and is often called “total Abeta”. Total Abeta peptides (Abeta 1-x) levels are measured by a sandwich ELISA, using monoclonal 266 as a capture antibody and biotinylated 3D6 as reporting antibody. (See May, et al., Journal of Neuroscience, 31, 16507-16516 (2011)).

Human BACE1(1-460):Fc = molecular target: T3, Human BACE1(1-460):Fc (Homo sapiens, UniProt P56817); experiment: BACE1 FRET Assay; format: biochemical; settings: purified recombinant huBACE1:Fc, FRET substrate based on APP; mean ± standard deviation of the mean, n=12
T3 construct: made in house; host or cells: HEK293 cells, transient transfection; purified from conditioned media by Protein A
Procedure: as §1, §2, §3
Serial dilutions of the test compound are prepared as described above. […] The RFU of the mixture at time 0 is recorded at excitation wavelength 355 nm and emission wavelength 460 nm, after brief mixing on a plate shaker. […] The RFU at the end of incubation is recorded with the same excitation and emission settings used at time 0. […]

[2] = Plasma and CSF compound exposure in cannulated beagle dogs (LC/MS/MS); format: in vivo; settings: dog, po, male beagle dogs, 1.0 mg/kg p.o.
Procedure: as §4
In this study, six male beagle dogs are dosed p.o. with 1.0 mg/kg Example 1 in a 0.5 M, phosphate buffer (pH=2.0) formulation and blood (0.5, 1, 2, 3, 6, 9, 12, 24, and 48 hours) and CSF (3, 6, 9, 24, and 48 hours) are collected. Plasma and CSF compound concentrations are determined by LC/MS/MS methods. Plasma and CSF are also analyzed for Abeta 1-x. […] Total Abeta peptides (Abeta 1-x) levels are measured by a sandwich ELISA, using monoclonal 266 as a capture antibody and biotinylated 3D6 as reporting antibody. […]

T1 sequence (P56817 46-501): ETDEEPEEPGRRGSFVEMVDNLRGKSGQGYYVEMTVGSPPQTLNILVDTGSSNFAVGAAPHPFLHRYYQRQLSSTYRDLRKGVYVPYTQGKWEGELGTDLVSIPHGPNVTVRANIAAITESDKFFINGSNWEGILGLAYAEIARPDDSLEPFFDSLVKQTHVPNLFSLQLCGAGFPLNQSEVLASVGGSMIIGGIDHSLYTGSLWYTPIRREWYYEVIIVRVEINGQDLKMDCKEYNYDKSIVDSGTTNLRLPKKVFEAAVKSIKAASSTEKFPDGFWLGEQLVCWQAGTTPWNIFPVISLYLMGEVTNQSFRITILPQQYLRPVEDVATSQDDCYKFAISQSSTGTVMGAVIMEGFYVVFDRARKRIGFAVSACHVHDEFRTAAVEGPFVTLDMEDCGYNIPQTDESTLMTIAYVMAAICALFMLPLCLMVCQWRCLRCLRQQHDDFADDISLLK
T3 sequence (P56817 22-460): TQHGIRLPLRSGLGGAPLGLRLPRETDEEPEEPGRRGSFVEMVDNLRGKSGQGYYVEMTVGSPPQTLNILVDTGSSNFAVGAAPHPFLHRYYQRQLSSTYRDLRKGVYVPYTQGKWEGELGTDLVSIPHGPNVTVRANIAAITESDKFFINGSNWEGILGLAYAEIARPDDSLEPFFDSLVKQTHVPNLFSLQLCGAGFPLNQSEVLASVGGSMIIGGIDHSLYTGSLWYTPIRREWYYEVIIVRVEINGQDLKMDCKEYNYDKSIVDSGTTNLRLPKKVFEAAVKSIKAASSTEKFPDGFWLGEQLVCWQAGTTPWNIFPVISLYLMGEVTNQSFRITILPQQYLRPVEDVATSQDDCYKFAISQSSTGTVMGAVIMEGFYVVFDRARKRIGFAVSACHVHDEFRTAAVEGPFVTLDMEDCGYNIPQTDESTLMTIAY

For CC(F)(F)[C@H]1OC[C@]2(c3cc(NC(=O)c4ccc(C(F)(F)F)cn4)ccc3F)N=C(N)OC[C@H]12 [Example 1, N-[3-[(4aR,5S,7aS)-2-Amino-5-(1,1-difluoroethyl)-4,4a,5,7-tetrahydrofuro[3,4-d][1,3]oxazin-7a-yl]-4-fluoro-phenyl]-5-(trifluoromethyl)pyridine-2-carboxamide], the IC50 ([1]; read-out: IC50 for SH-SY5YAPP695Wt A-beta (1-40) ELISA) was 1.03 nM, the IC50 ([1]; read-out: IC50 for SH-SY5YAPP695Wt A-beta (1-42) ELISA) was 1.28 nM and the IC50 (human BACE2 (1-460):Fc; huBACE2:Fc, TMEM27 LucY FRET substrate, mean ± standard deviation of the mean, n=6) was 602 nM. The “BACE1 selectivity over BACE2 (BACE2 IC50 / BACE1 IC50)” value (human BACE2 (1-460):Fc; selectivity for BACE1 over BACE2) was “approximately 50 fold”, the “reduction of CSF Abeta 1-x levels relative to baseline” value (beta-secretase; 24 hours) was “approximately 65%” and the “reduction in plasma levels of Abeta 1-x at nadir” value (beta-secretase; 48 hour post-dosing period) was “up to 80%”. For the same molecule, the “reduction of CSF Abeta 1-x levels relative to baseline” value (beta-secretase; 48 hours) was ~55%, the IC50 (Human BACE1(1-460):Fc) was 11.9 nM and the Kp ([2]; CSF / free plasma, free fraction by equilibrium dialysis, read-out: ratio of CSF AUC to free plasma AUC) was 0.17. The AUC ([2]; plasma, read-out: total plasma AUC exposure) was 7.96 µM·h.

Reference: patent US20190106434A1, “N-[3-[2-AMINO-5-(1,1-DIFLUOROETHYL)-4,4A,5,7-TETRAHYDROFURO[3,4-D][1,3]OXAZIN-7A-YL]-4-FLUORO-PHENYL-5-(TRIFLUOROMETHYL)PYRIDINE-2-CARBOXAMIDE AND ITS (4AR,5S,7AS) ISOMER AS A SELECTIVE BACE1 INHIBITOR FOR TREATING E.G. ALZHEIMER'S DISEASE” (Eli Lilly and Company, priority 2016, published 2019)
